Reference: paper PMC10825183 (Nature Communications, 2024)
Where “and” joins values, the source holds several entries; their conditions need not be identical. Equal entries are not always repeated. Where two headings read alike, the source gives them in different places.

Columns and labels:
[1] = target: T1, full length mHCN2 (Mus musculus, UniProt O88703); assay: Confocal patch-clamp fluorometry (cPCF), oocyte macropatches; type: binding; conditions: for factor of relative fluorescence increase: individual patches
T1 construct: to full length mHCN2 and ΔDE (mHCN2 1-640) mutant channels, both expressed in Xenopus oocytes; expressed in transfected cells; host or cells: Xenopus laevis oocytes (cRNA injected; pGEMHE vector); excised macropatches
T1 sequence (O88703 1-863): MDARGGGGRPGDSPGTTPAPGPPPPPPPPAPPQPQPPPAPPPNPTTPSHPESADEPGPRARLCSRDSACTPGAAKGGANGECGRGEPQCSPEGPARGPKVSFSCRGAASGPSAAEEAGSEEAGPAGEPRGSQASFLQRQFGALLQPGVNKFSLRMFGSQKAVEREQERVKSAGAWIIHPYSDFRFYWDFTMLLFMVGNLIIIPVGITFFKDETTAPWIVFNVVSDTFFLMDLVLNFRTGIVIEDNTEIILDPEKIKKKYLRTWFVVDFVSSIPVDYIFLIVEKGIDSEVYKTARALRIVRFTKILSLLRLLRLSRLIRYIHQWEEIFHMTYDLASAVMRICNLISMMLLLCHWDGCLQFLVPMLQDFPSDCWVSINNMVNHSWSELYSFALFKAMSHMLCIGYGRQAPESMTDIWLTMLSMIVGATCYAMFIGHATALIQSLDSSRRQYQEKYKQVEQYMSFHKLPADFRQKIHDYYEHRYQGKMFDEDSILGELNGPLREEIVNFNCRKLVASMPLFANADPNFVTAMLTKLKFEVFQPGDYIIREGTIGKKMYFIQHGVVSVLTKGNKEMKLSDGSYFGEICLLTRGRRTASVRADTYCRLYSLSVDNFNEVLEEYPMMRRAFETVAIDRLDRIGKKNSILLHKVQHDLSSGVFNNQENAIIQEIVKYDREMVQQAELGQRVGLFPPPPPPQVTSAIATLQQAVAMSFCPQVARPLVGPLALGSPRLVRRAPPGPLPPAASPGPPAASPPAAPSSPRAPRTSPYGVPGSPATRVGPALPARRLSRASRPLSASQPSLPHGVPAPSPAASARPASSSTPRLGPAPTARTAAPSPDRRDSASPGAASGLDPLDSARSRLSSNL
Method: (§1) We tested this hypothesis using confocal patch-clamp fluorometry (cPCF)[8], measuring current activation and ligand binding in parallel.
(§2) Oocytes were surgically removed from adult females of the South African clawed frog Xenopus laevis under anesthesia (0.3% MS-222 (tricaine methanesulfonate) (Pharmaq, Fordingbridge, UK)). The surgery procedures were carried out in accordance with the German Animal Welfare Act with the approval of the Thuringian State Office for Consumer Protection on 30.08.2013 and 09.05.2018. The oocytes were treated with collagenase A (3 mg/mL; Roche Diagnostics (Grenzach-Wyhlen, Germany)) for 105 min in Ca^2+-free Barth solution containing 82.5 mM NaCl, 2 mM KCl, 1 mM MgCl2, and 5 mM HEPES (pH 7.5). Oocytes of stages IV and V were manually dissected and injected with cRNA-encoding mHCN2 channels of Mus musculus or constructs carrying a point mutation. After injection with cRNA, the oocytes were cultured at 18 °C for 2–10 days in Barth solution containing 84 mM NaCl, 1 mM KCl, 2.4 mM NaHCO3, 0.82 mM MgSO4, 0.41 mM CaCl2, 0.33 mM Ca(NO3)2, 7.5 mM Tris, cefuroxime, and penicillin/streptomycin (pH 7.4). The procedures had approval from the authorized animal ethics committee of the Friedrich Schiller University Jena. The methods were performed according to approved guidelines. Oocytes harvested in our laboratory were complemented with ready-to-use oocytes purchased from EcoCyte Bioscience (Dortmund, Germany).
(§3) The recordings were performed with an LSM 710 confocal microscope (Carl Zeiss, Jena, Germany) and were triggered by the ISO3 software (MFK, Niedernhausen, Germany). To distinguish the fluorescence of the nonbound f1cAMP from that of the bound f1cAMP, a second, chemically related dye, DY647 (Dyomics, Jena, Germany), was also added to the bath solution. The 543- and 633-nm lines of an He-Ne laser were used to excite f1cAMP and DY647, respectively. For quantifying the bound f1cAMP, the fluorescence intensities of the red and the green channels were corrected for small offsets, and the fluorescence in the red channel was scaled to the fluorescence in the green channel in the bath. The difference between the measured green and the scaled red profile for each pixel of the confocal image represents the fraction of the fluorescence signal originating from the bound f1cAMP. The free patch membrane (patch dome) only was used to quantify binding by setting a mask at a region of interest. The fluorescence, F, was averaged over all pixels inside this mask and normalized in each patch concerning the fluorescence at saturating (f1cAMP) and full channel activation (−130 mV), Fmax. The recording rate of the confocal images was 10 Hz.

[2] = target: T2, ΔDE (mHCN2 1-640) (Mus musculus, UniProt O88703); assay: as above; type: binding; conditions: for factor of relative fluorescence increase: individual patches
T2 construct: full length mHCN2 and ΔDE (mHCN2 1-640) mutant channels, both expressed in Xenopus oocytes; expressed in transfected cells; host or cells: Xenopus laevis oocytes (cRNA injection, pGEMHE)
T2 sequence (O88703 1-640): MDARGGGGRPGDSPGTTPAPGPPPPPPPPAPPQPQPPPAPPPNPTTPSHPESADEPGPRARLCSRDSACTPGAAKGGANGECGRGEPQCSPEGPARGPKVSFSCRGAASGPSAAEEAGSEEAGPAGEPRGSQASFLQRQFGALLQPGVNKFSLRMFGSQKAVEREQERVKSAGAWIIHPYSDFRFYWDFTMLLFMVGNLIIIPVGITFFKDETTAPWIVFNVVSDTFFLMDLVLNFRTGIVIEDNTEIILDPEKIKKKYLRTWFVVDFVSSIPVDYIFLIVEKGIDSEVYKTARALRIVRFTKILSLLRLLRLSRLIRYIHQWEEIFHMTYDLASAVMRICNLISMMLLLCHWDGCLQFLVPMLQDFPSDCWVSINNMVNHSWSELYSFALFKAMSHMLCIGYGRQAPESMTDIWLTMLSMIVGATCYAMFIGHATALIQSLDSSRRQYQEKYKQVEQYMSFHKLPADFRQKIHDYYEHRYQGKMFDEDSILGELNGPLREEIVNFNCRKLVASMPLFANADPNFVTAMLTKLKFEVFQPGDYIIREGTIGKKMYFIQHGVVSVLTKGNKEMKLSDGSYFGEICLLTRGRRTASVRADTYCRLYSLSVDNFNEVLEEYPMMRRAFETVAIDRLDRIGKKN
Method: as §1, §2, §3

[3] = target: T1, full length mHCN2; conditions: read-out: binding affinity BC50, cited from earlier work

8-Cy3B-AHT-cAMP [f1cAMP]
mean increase of fluorescence intensity upon activation, F–130 mV/F−30mV ([1]; 0.25 µM f1cAMP, n = 9): 1.6 ± 0.1
F-130 mV/F−30mV ([1]; 2.5 µM f1cAMP, n = 7): 1.1 ± 0.04
factor of relative fluorescence increase ([1]; fcAMP 0.25 µM): 1.7 and 1.6 and 1.9 and 2.2 and 1.3 and 1.2
factor of relative fluorescence increase ([1]; fcAMP 2.5 µM): 0.9 and 1.1 and 1.3 and 1.0 and 1.2
mean increase of fluorescence intensity upon activation, F–130 mV/F−30mV ([2]; 0.25 µM f1cAMP, n = 4): 2.1 ± 0.3
factor of relative fluorescence increase ([2]; fcAMP 0.25 µM): 1.6 and 2.4 and 1.7 and 2.6
factor of relative fluorescence increase ([2]; fcAMP 2.5 µM): 1.1 and 1.3 and 1.2
Kd ([3]; activated mHCN2 channels): 250 nM
Kd ([3]; non-activated mHCN2 channels): 980 nM
